Measured values taken from ChEMBL document CHEMBL1909046, “DrugMatrix in vitro pharmacology data”.

Columns and labels:
[1] = biological target: Beta-1 adrenergic receptor (Homo sapiens, UniProt P08588); assay: DRUGMATRIX: Adrenergic beta1 radioligand binding (ligand: [125I] Cyanopindolol); format: cell membranes, CHO-K1, Membrane; details: cho-k1; Not Active = under 50% inhibition at 10 µM
[2] = biological target: Vasopressin V1a receptor (Homo sapiens, UniProt P37288); format: cell membranes, Membrane; details: hek293; note: in other assays of this panel Not Active means under 50% inhibition at 10 µM
Vasopressin V1a receptor, sequence (P37288 whole entry): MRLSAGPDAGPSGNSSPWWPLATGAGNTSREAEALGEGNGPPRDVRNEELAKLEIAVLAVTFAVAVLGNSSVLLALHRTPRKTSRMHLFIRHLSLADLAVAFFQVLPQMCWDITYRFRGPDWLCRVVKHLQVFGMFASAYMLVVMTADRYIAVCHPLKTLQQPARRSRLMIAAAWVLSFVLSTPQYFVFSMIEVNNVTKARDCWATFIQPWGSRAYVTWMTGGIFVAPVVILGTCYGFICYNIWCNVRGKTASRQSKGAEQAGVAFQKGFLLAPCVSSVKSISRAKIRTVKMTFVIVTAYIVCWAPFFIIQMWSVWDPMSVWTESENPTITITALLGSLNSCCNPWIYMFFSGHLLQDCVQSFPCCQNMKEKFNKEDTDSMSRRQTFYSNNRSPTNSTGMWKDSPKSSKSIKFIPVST

[3] = biological target: T1, Calcitonin receptor (Homo sapiens, UniProt P30988); format: cell membranes, Membrane; details: t47d; note: in other assays of this panel Not Active means under 50% inhibition at 10 µM
T1 sequence (P30988 whole entry): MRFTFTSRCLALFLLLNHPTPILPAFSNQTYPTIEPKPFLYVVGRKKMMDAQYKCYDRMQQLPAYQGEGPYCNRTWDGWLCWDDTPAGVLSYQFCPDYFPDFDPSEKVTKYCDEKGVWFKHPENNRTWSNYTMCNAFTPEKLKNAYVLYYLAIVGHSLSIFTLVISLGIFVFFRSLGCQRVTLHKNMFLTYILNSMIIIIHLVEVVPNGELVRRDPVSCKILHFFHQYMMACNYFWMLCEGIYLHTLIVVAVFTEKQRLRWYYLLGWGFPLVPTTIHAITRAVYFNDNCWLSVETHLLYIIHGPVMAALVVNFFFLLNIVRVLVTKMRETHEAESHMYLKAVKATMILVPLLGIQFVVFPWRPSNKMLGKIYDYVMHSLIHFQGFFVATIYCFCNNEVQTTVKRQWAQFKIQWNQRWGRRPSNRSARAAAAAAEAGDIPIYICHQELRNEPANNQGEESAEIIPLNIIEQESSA

[4] = biological target: Receptor tyrosine-protein kinase erbB-2 (Homo sapiens, UniProt P04626); assay: biochemical; format: cell-based, Insect cells; details: insect cells;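 note: inhibition of HER2 kinase enzyme activity, measured with Poly(Glu:Tyr) as the phosphorylation substrate; in other assays of this panel Not Active means under 50% inhibition at 10 µM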
Receptor tyrosine-protein kinase erbB-2, sequence (P04626 whole entry): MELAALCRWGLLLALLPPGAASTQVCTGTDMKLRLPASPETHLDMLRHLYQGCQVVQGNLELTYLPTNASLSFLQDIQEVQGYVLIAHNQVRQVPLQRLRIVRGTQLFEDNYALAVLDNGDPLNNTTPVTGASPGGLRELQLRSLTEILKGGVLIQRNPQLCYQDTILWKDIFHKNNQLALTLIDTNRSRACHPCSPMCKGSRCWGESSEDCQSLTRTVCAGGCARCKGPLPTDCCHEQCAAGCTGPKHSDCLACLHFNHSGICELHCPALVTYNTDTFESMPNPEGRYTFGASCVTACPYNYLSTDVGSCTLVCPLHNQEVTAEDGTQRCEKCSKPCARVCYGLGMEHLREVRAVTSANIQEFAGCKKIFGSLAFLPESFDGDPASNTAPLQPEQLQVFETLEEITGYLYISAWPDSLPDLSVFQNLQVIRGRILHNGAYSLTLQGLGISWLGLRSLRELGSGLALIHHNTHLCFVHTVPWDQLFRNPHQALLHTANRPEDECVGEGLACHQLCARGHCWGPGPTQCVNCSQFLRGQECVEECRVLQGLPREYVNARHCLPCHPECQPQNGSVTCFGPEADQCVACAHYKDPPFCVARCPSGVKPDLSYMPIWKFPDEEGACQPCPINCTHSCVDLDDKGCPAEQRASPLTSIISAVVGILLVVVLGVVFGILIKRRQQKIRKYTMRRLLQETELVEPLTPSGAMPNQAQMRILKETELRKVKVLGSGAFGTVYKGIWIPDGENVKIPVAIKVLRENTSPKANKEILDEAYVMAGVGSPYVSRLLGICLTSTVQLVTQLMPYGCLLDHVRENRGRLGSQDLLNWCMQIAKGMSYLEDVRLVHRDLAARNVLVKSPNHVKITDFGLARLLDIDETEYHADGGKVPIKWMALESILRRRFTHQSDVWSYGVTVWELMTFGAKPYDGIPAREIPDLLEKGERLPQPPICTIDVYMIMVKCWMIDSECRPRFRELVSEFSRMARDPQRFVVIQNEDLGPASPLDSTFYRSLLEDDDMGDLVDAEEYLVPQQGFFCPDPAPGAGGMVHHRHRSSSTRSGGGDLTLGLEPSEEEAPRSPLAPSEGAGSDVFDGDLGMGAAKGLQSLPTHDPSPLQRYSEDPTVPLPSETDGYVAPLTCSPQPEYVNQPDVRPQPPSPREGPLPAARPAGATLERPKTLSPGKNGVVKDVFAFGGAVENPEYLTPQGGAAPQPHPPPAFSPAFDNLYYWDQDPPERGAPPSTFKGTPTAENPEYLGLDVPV

[5] = biological target: T2, C-C chemokine receptor type 4 (Homo sapiens, UniProt P51679); format: cell membranes, Chem-1, Membrane; details: chem-1; note: in other assays of this panel Not Active means under 50% inhibition at 10 µM
T2 sequence (P51679 whole entry): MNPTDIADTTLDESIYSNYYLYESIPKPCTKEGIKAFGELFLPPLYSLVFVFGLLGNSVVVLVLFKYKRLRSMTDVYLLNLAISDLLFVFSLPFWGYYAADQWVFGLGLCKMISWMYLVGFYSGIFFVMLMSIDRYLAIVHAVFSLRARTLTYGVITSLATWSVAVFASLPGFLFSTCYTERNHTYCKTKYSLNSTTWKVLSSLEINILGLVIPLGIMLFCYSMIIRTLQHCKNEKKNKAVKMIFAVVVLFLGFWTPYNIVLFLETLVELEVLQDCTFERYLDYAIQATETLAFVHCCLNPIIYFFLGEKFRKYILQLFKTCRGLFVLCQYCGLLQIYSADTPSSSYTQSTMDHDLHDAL

[6] = DRUGMATRIX: Calcium Channel Type L, Dihydropyridine radioligand binding (ligand: [3H] Nitrendipine); format: cell membranes, Rattus norvegicus, Wistar, Cerebral cortex, Membrane; details: Not Active = under 50% inhibition at 10 µM

Beta-1 adrenergic receptor, sequence (P08588 whole entry): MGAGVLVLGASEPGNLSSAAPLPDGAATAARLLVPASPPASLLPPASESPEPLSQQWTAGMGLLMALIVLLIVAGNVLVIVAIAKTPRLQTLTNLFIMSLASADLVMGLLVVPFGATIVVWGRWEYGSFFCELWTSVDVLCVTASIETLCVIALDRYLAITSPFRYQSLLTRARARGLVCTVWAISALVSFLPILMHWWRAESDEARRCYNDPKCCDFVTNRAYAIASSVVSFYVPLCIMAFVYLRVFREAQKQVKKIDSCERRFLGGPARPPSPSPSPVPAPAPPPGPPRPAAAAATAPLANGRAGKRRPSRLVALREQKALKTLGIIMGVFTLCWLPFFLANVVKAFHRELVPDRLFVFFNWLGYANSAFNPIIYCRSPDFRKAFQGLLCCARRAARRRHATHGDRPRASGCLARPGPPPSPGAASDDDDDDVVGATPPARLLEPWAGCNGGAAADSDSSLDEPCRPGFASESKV

Cn1ccnc1S [METHIMAZOLE]
Not Active: IC50 [1] | IC50 [2] | IC50 [3] | IC50 [4] | IC50 [5] | IC50 [6] | Ki [6]

Cc1oncc1C(=O)Nc1ccc(C(F)(F)F)cc1 [LEFLUNOMIDE]
Not Active: IC50 [1] | IC50 [2] | IC50 [3] | IC50 [4] | IC50 [5] | IC50 [6] | Ki [6]

COc1c(C)c2c(c(O)c1C/C=C(\C)CCC(=O)O)C(=O)OC2 [MYCOPHENOLIC ACID]
Not Active: IC50 [1] | IC50 [2] | IC50 [3] | IC50 [4] | IC50 [5] | IC50 [6] | Ki [6]

CCCOc1ccccc1-c1nc2nn[nH]c2c(=O)[nH]1 [ZAPRINAST]
Not Active: IC50 [1] | IC50 [2] | IC50 [3] | IC50 [4] | IC50 [5] | IC50 [6] | Ki [6]

C=CCC1(C(C)CCC)C(=O)NC(=O)NC1=O (centres undefined) [SECOBARBITAL]
Not Active: IC50 [1] | IC50 [2] | IC50 [3] | IC50 [4] | IC50 [5] | IC50 [6] | Ki [6]

CC(=O)[C@@]1(O)CC[C@H]2[C@@H]3C[C@H](C)C4=CC(=O)CC[C@]4(C)[C@H]3CC[C@@]21C
Not Active: IC50 [1] | IC50 [2] | IC50 [3] | IC50 [4] | IC50 [5] | IC50 [6] | Ki [6]

N#CC(C#N)=Cc1ccc(O)c(O)c1 [TYRPHOSTIN 23]
Not Active: IC50 [1] | IC50 [2] | IC50 [3] | IC50 [4] | IC50 [5] | IC50 [6] | Ki [6]
